In patent publication US7807641B2, “Methods and reagents for treating glucose metabolic disorders” (Curis, Inc., priority 1999, dated 2010):
Read-outs that look alike come from different tables or passages of the source. Numbered stars: 1 amine (or outer) side, 2 acyl side, 3 side chain; on linkers, the order of the positions; unused ones are H or OH. Bridge positions count the residues as written; N and C are the ends. Square brackets hold non-standard residues; d marks the D form. Ends that are not written are not given here. Peptide text beside a SMILES is read from it. I, II: the chains in the order shown. Actinocin(9to1) = Cc1c2oc3c(C)ccc(C(=O)[*:1])c3nc-2c(C(=O)[*:2])c(N)c1=O; NMeV = CN[C@H](C(=O)O)C(C)C; Sar = CNCC(=O)O

Assays:
[1] = test system: Fetal rat islets; assay: Insulin content of cultured fetal rat islets; format: cell-based; conditions: 200μ/ml PYY for 5 days, actinomycin D at 0.1, 0.2, 0.5 and 1.0 μg/ml for the last 16 hours
Description: (§1) Fetal rat islets were obtained as follows. […] Fetuses were removed from the uterus.

[2] = test system: e21 islets; assay: IBMX stimulated calcium influx in e21 islets; format: cell-based, rat; conditions: 1 μM IBMX in 3 mM (low) glucose; non-glucose responsive e21 islets
Method: as §1
E21 islet were isolated and cultured according to Example 1. Islets were then treated with 17 mM glucose or 1 μM IBMX in 3 mM (low) glucose (FIG. 2).

[3] = test system: small ducts from rat pancreas; conditions: cited from earlier work
[4] = test system: E21 fetal islets; assay: Glucose-stimulated insulin release (static insulin release, RIA) in cultured e21 fetal rat islets; conditions: e21 fetal islets cultured for 5 days with 200 ng/ml peptide
[5] = confluent duct monolayer, single treatment preferentially 48 hr

Compound: Cc1c2oc3c(C)ccc(C(=O)N[C@@H]4C(=O)N[C@H](C(C)C)C(=O)N5CCC[C@H]5C(=O)N(C)CC(=O)N(C)[C@@H](C(C)C)C(=O)O[C@@H]4C)c3nc-2c(C(=O)N[C@@H]2C(=O)N[C@H](C(C)C)C(=O)N3CCC[C@H]3C(=O)N(C)CC(=O)N(C)[C@@H](C(C)C)C(=O)O[C@@H]2C)c(N)c1=O [Actinomycin D, actinomycin D] (I: T[dV]P[Sar][NMeV] / II: T[dV]P[Sar][NMeV]; ester I:1-I:C, II:1-II:C; linker I:N-II:N via Actinocin(9to1))
- overall islet insulin content [1]: did not significantly decrease overall islet insulin content

Compound: CC(C)Cn1c(=O)n(C)c(=O)c2[nH]cnc21 [IBMX]
- intracellular calcium influx [2]: induced a calcium influx

Compound: CCCC(=O)[O-].[Na+] [Na-Butyrate]
- induction of differentiation [3, 5]: found to induce differentiation

Compound: CCCC(=O)Nc1ncnc2c1ncn2[C@@H]1O[C@@H]2COP(=O)(O)O[C@H]2[C@H]1OC(=O)CCC [dibutyrl cAMP]
- induction of differentiation [3, 5]: found to induce differentiation

Compound: PPP: related peptide sharing approximately 70% amino acid homology with PYY; probably pancreatic polypeptide (PP) (APLEPVYPGDNATPEQMAQYAADLRRYINMLTRPRY; ends and bridges not checked; UniProt P01298 30-65, looked up)
- gain of glucose responsivity (glucose-stimulated insulin release) [4]: did not stimulate gain of glucose responsivity

Compound: cholera toxin
- induction of differentiation [3]: found to induce differentiation

Compound: neuropeptide Y [NPY]
- gain of glucose responsivity (glucose-stimulated insulin release) [4]: did not stimulate gain of glucose responsivity
